Measured values reported in US20240050735A1, “SYSTEMS AND METHODS FOR TREATING AND INHIBITING WOUND INFECTIONS” (priority 2020, published 2024).
Counter-ions that a name gives are not always drawn.

Key:
[1] = tested on: C. difficle; conditions: cited from earlier work
[2] = conventional transdermal iontophoresis 0.31 mA cm^−2; cited from earlier work
[3] = tested on: S. aureus biofilms; conditions: cited from earlier work
[4] = tested on: MRSA biofilm-infected porcine skin wound; experiment: Ex vivo anti-biofilm efficacy, standard plate counting assay; format: cell-based, Methicillin-resistant S. aureus (MRSA) USA300
Protocol: Same as previous tests, an ex vivo MRSA biofilm-infected porcine skin wound model was used here. First the biofilm treatment efficacy was tested when different current intensities were used with a fixed VAN loading concentration at 1 mg mL^−1. After a single treatment for 1 hour, wound tissues were incubated for 24 hours in a 37° C. incubator to allow VAN to take effect. After incubation, tissue samples were collected and evaluated for bacterial count using the standard plate counting assay for MRSA colony. […] Treating the biofilm with no current for 1 hour (only VAN diffusion) or a low current of 0.5 mA cm^−2 for 1 hour induced a minimal MRSA count reduction to 10^9.8 CFU g^−1 and 10^9.6 CFU g^−1, respectively. When 19 mA cm^−2, 38 mA cm^−2, and 75 mA cm^−2 were applied, MRSA count was further reduced to 10^8.6 CFU g^−1, 10^8.3 CFU g^−1 and 10^7.6 CFU g^−1, respectively (see FIGS. 5A and 5F). […] Because 75 mA cm^−2 had better anti-biofilm efficacy than other conditions, it was selected for the following tests.
The fetal pig skin samples (approximately 30×30 mm) were immersed in 10% (v/v) bleach for 5 minutes after hair removal. Then, skin samples were sterilized in 70% ethanol for 30 minutes. The surface of skin sample was further cleaned by 10% povidone-iodine and 70% isopropanol to prevent contamination. A 6-mm disposable biopsy punch was used to create an excisional wound. Samples were put into sterile 10-cm petri-dishes filled with sterile PBS (6 mL). The wound was then inoculated with 1×10^8 CFU mL^−1 MRSA bacteria solution (20 μL). The bacteria were allowed to grow in a 37° C. Heratherm™ compact microbiological incubator (ThermoFischer Scientific™, Waltham, Mass., USA) for 48 hours to form mature biofilms.
The HIC-based biofilm treatment system 100 embodiment shown in FIG. 18 was used to test electrical debridement treatment of high-intensity current on ex vivo MRSA biofilm infected skin wounds. The MRSA biofilm infected skin wound was sandwiched between anode and cathode HIC-based devices (i.e., the working device 104 and the counter device 106). To evaluate the anti-biofilm effect of high current intensity only, PBS (5 mL) was filled in both drug/buffer chamber 114 and PBS chamber 122 and then 0.5 mA cm^−2, 19 mA cm^−2, 38 mA cm^−2, and 75 mA cm^−2 was applied for 1 hour, respectively. The device/skin wound contact area was 0.502 cm^2. Skin samples were collected by 8-mm biopsy punch immediately after test or at 24 hours after testing. To evaluate the biofilm thickness before and after different treatments, samples were embedded in tissue freezing medium (OCT) and sectioned at 8 μm. After being imaged in microscope, the thickness of biofilms after different treatments were measured using ImageJ software. To evaluate the colony-forming unit (CFU) counts per gram of MRSA from infected skin wounds, samples were homogenized in PBS (10 mL) and diluted with PBS, and then transferred to standard plate counting assay. The bactericidal efficacy was calculated as follows:
The HIC-based biofilm treatment system 100 embodiment shown in FIG. 18 was used to evaluate combined biofilm treatment efficacy of electrical debridement and VAN delivery. To evaluate the anti-biofilm treatment efficacy of current intensity, 0 mA cm^−2 (passive diffusion) to 75 mA cm^−2 was applied on the HIC-based biofilm treatment system 100 with 1 mg mL^−1 VAN loaded in HIC-based working device 104, respectively. […] To further enhance the anti-biofilm efficacy of electrical debridement and high concentration delivery of VAN, two treatments were applied, named protocol #1 and protocol #2. Protocol #1 applied two treatments (treatment: 75 mA cm^−2 for 1 hour, 1 mg mL^−1 VAN loaded in HIC-based working device 104) separated by 6 hours. Protocol #2 applied two treatments (treatment same as Protocol #1) separated by 24 hours. CFU was counted 24 hours after last treatment using the standard spread counting assay. The bactericidal efficacy was calculated accordingly. […]

[5] = tested on: HaCaT cells; experiment: Cell toxicity of high concentration of antibiotics, LIVE/DEAD stain; format: cell-based, human; conditions: 4.5 mg mL^−1 VAN, 48 hour incubation
Protocol: (§1) To evaluate the cell toxicity of the high concentration of antibiotics, HaCaT cells and HDFa cells were used. 2×10^4 HaCat cells and 2×10^3 HDFa cells were seeded in each well of a 96-well plate. After being cultured in an incubator under 37° C. and 5% CO2 for 24 hours, 4.5 mg mL^−1 VAN and 20 mg mL^−1 DAP were added to the culture media, respectively. Both HaCat cells and HDFa cells were treated by VAN for two days, and exposed to DAP for one day, respectively. The cell toxicity of the two cells at the end time points were evaluated by LIVE/DEAD stain and visualized by a confocal laser scanning microscope (CLSM, LSM 710, Zeiss, Germany).

[6] = tested on: HDFa cells; experiment: as above; format: cell-based, human; conditions: 4.5 mg mL^−1 VAN, 48 hour incubation
Protocol: as §1

[7] = 0.3 mA cm^−2 for 4 hours; cited from earlier work
[8] = 75 mA cm^−2 1 hour, 1 mg mL^−1 VAN, 24 hours after

Q: With CN[C@H](CC(C)C)C(=O)N[C@H]1C(=O)N[C@@H](CC(N)=O)C(=O)N[C@H]2C(=O)N[C@H]3C(=O)N[C@H](C(=O)N[C@H](C(=O)O)c4cc(O)cc(O)c4-c4cc3ccc4O)[C@H](O)c3ccc(c(Cl)c3)Oc3cc2cc(c3O[C@@H]2O[C@H](CO)[C@@H](O)[C@H](O)[C@H]2O[C@H]2C[C@](C)(N)[C@H](O)[C@H](C)O2)Oc2ccc(cc2Cl)[C@H]1O [VAN, Vancomycin hydrochloride] as the compound, how does the “concentration at which antibacterial activity starts to decrease (paradoxical effect)” value [1] read?
A: 64 ×MIC

Q: And the “permeation coefficient (Pc)” value [2]?
A: 2.21e+11 ×10⁻⁶ cm/s

Q: And the “biofilm bacterial density reduction” value ([3]; 2 mA (0.17 mA cm^−2) for 24 hours with 32 μg mL^−1 vancomycin)?
A: 1 log10 scale

Q: And the antibacterial effect ([3]; vancomycin alone)?
A: no antibacterial effect

Q: And the bactericidal efficacy ([4]; 0.5 mA cm^−2 1 hour, 1 mg mL^−1 VAN, 24 hours after)?
A: 4.4±2.76 times

Q: What about the bactericidal efficacy ([4]; 19 mA cm^−2 1 hour, 1 mg mL^−1 VAN, 24 hours after) of the same compound?
A: 57.8±50.30 times

Q: What about the bactericidal efficacy ([4]; 38 mA cm^−2 1 hour, 1 mg mL^−1 VAN, 24 hours after) of the same compound?
A: 81.4±13.34 times

Q: And the bactericidal efficacy [4, 8]?
A: 452.8±115.32 times

Q: And the bactericidal rate [4, 8]?
A: 99.8%

Q: And the bactericidal efficacy ([4]; 75 mA cm^−2 1 hour, 3 mg mL^−1 VAN loading)?
A: 112.6±13.58 times

Q: And the bactericidal efficacy ([4]; 75 mA cm^−2 1 hour, 5 mg mL^−1 VAN loading)?
A: 5.1±3.80 times

Q: What about the bactericidal efficacy ([4]; 75 mA cm^−2 1 hour, 10 mg mL^−1 VAN loading) of the same compound?
A: 9.7±2.92 times

Q: What about the bactericidal efficacy ([4]; passive diffusion 1 hour, 1 mg mL^−1 VAN, 24 hours after) of the same compound?
A: 2.7±2.06 times

Q: And the “MRSA bacterial count reduction in wound tissue” value ([4]; single 1 hour treatment, 75 mA cm^−2, 1 mg mL^−1 VAN)?
A: 2.6 login scales

Q: And the “viability of skin cells” value [5]?
A: not affected

Q: And the “viability of skin cells” value [6]?
A: not affected

Q: What about the “amount delivered into the epidermis by iontophoresis vs passive diffusion” value [7] of the same compound?
A: 2.1 times
